Data from patent publication US7960435B2, “Anti-cancer agents and androgen inhibition activity compound” (University of Maryland, Baltimore, priority 2006, dated 2011).
Where a chain is given by its changes, count along the chain named. Where two headings read alike, the source gives them in different places.

Tests used:
[1] = tested on: LNCaP cells; experiment: Cell growth inhibition (MTT colorimetric assay), LNCaP; assay type: cell-based, human; conditions: for GI50: LNCaP (mutant AR), MTT, means of three experiments, called IC50, read-out: Cytotoxicity GI50 (nM) LNCaP
From the text: (§1) Lead optimization of BTB01434 and further biological studies: BTB01434 (Maybridge) was used as a lead molecule to synthesize new molecules. Although this compound was not as potent as some of the others (cf. Table 4), it was chosen for its ease of modification. New compounds (6-23) were developed using the diaryl sulfonamide compound BTB01434 (FIG. 6) as a scaffold. […] Including new BTB01434 analogs, including diaryl sulfonamide analogs bearing various substituents on the phenyl rings (series A), aryl amide analogs (series B), and amine analogs (series C). These new compounds were evaluated for cell growth inhibition in two human prostate cancer cell lines, (LNCaP and PC-3) by MTT assay. Based on the structures and anti-prostate cancer activities of the new compounds, a structure-activity relationship (SAR) was formulated.
Androgen-dependent LNCaP cells were obtained from American Type Culture Collection (Rockville, Md., USA). Cells were maintained in RPMI 1640 medium supplemented with 10% fetal bovine serum (Atlanta Biologicals, Lawrenceville, Ga., USA) and 1% penicillin/streptomycin. Cells were grown as a monolayer in T75 or T150 tissue culture flasks in a humidified incubator (5% CO2, 95% air) at 37° C.
(§2) LNCaP cells were seeded in 24 well plates (Corning Costar) at a density of 2×10^4 cells per well per 1 mL of medium. Cell were allowed to adhere to the plate for 24 hours and then treated with different concentrations of ARDAs dissolved in DMSO. Cells were treated for five days with renewal of ARDA and media on day 3. On the fifth day, medium was renewed and 100 μL of MTT (3-(4,5-dimethylthiazol-2-yl)-2,5-diphenyl-2H-tetrazolium bromide from Sigma) solution (0.5 mg MTT/mL of medium) was added to the medium such that the ratio of MTT:medium was 1:10. The cells were incubated with MTT for 2 hours. The medium was then aspirated and 500 μL of DMSO was added to solubilize the violet MTT-formazan product. The absorbance at 560 nm was measured by spectrophotometry (Victor 1420 multilabel counted, Wallac). For each concentration of ARDA there were triplicate wells in each independent experiment. IC50 values were calculated by nonlinear regression analysis using GraphPad Prism software.

[2] = tested on: PC-3 cells; experiment: Cell growth inhibition (MTT assay), PC-3; assay type: cell-based, human; conditions: Homo sapiens, PC-3 (AR null), means of three experiments, called IC50, read-out: Cytotoxicity GI50 (nM) PC-3
From the text: as §1
Inhibition of prostate cancer cell proliferation and SAR: The exemplary compounds were then tested for their ability to inhibit cell viability in both the LNCaP (mutant AR) and PC-3 (AR null) cell lines (Table 5).
as §2

[3] = target: T1, wild-type AR (Homo sapiens, UniProt P10275); experiment: Competitive androgen receptor binding with [3H]-R1881 in PC-3-AR cells; conditions: PC-3-AR cells
T1 construct: expressed in transfected cells; host or cells: PC-3 (stably transfected, PC-3-AR)
T1 sequence (P10275 1-920): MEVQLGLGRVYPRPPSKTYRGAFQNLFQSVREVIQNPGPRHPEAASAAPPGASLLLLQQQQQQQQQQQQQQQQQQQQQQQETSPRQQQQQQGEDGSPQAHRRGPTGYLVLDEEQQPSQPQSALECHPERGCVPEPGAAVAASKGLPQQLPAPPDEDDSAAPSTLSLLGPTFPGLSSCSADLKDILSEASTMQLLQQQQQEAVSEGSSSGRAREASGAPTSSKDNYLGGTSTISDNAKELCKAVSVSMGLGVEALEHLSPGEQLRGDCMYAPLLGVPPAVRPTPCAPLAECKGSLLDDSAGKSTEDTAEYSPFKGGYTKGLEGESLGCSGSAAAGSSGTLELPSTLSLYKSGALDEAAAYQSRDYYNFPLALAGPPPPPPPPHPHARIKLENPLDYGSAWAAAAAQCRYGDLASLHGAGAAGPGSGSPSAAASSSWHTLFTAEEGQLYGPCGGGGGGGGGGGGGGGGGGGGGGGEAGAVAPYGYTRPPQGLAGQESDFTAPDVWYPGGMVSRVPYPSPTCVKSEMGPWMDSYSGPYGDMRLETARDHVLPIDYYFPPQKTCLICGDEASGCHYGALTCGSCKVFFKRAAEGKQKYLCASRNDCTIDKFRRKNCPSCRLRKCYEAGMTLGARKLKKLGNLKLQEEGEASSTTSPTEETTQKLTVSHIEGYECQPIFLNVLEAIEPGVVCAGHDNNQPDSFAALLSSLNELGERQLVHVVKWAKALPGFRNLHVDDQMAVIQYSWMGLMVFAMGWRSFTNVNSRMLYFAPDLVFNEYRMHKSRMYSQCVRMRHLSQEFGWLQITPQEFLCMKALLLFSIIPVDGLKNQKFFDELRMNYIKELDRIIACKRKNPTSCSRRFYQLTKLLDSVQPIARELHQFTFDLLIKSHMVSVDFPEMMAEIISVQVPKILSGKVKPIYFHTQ
Experimental: (§3) In both cell lines, compounds 9 and 11 were able to effectively compete with labeled R1881 in a dose-dependent fashion (FIG. 11). In PC-3-AR cells compound II reduced [^3H]-R1881 binding by 65% and 80% at 10 μM and 20 μM, respectively. […] Compound 9 reduced [^3H]-R1881 binding by 50% and 65% at 10 μM and 20 μM, respectively, and was equipotent in both cell lines.
(§4) These assays were performed as previously described.^10

[4] = target: T2, mutated AR (Homo sapiens, UniProt P10275, T878A); experiment: Competitive androgen receptor binding with [3H]-R1881 in LNCaP cells
T2 construct: we utilized the LNCaP cell line which contains a mutant AR; host or cells: LNCaP
T2 sequence (P10275 1-920 T878A): T1 sequence (P10275 1-920) with T878A
Experimental: as §3, §4

[5] = tested on: AR-mediated transcription (LNCaP-AR); experiment: Luciferase transactivation assay in LNCaP cells transfected with ARR2-Luc; assay type: cell-based, human; conditions: for effect on luciferase activity, compound alone: without DHT
Experimental: FIG. 12. […] Cells in steroid-free medium were treated with vehicle, or increasing concentrations of either 9 or 11 with and without 5 nM DHT for 18 h. Cells were then assayed for luciferase activity using a know assay.^10
To determine if the compounds act as AR agonists or antagonists, androgen regulated transcriptional activation studies were performed in LNCaP cells transiently transfected with the probasin luciferase reported construct ARR2-Luc.
as §4

fold less potent than compound 8 (GI50) ([1]; LNCaP cells) [fold] | fold more potent than compound 6 (GI50) ([1]; LNCaP cells) [fold] | melting point [°C] | reduction of [3H]-R1881 binding ([3]; 10 μM) [%] | reduction of [3H]-R1881 binding ([3]; 20 μM) [%] | reduction of [3H]-R1881 binding ([4]; 10 μM) [%] | reduction of [3H]-R1881 binding ([4]; 20 μM) [%] | Compound | GI50 ([1]; Homo sapiens, LNCaP) [nM] | GI50 [1] [nM] | GI50 [2] [nM] | effect on luciferase activity, compound alone ([5]; 0.1 μM) | reduction of luciferase expression in the presence of DHT ([5]; 10 μM, with 5 nM DHT) [%] | effect on luciferase activity, compound alone ([5]; 10 μM)
5 | 5.6 | 102 |  |  |  |  | O=[N+]([O-])c1ccccc1NS(=O)(=O)c1ccccc1 [Compound 7, (2-Nitrophenyl)(phenylsulfonyl)amine] | 14.8 | 14.1 | 22900 |  |  | 
 |  |  | 50 | 65 | 50 | 65 | Cc1ccc(NS(=O)(=O)c2ccc(F)cc2)c([N+](=O)[O-])c1 [Compound 9, [(4-Fluorophenyl)sulfonyl](4-methyl-2-nitrophenyl)amine] | 2.34 |  | 850 | slight increase | 50 | did not increase
